From patent publication US10758536B2, “Method for treating shingles with N-methanocarbathymidine (N-MCT)” (priority 2015, dated 2020) come the findings set out here.

The structures appear in SMILES notation. Values after ≈ are worked out from the molar mass of the structure shown. “Also recorded” adds a separate entry of the source.

Data set [1] deals with VZV. The experiment in a line: EC50 determination in HFFs, VZV-BAC-Luc bioluminescence. The format is cell-based, varicella-zoster virus. How it is done:
Human foreskin fibroblasts (HFFs) (CCD-1137Sk; American Type Culture Collection), used prior to passage 20 were grown in Eagle minimum essential medium with Earle's salts and L-glutamine (HyClone Laboratories), supplemented with 10% heat-inactivated fetal bovine serum (Benchmark FBS; Gemini Bio Products), penicillin-streptomycin (5000 IU/mL), amphotericin B (250 µg/mL), and nonessential amino acids (all Mediatech). VZV-BAC-Luc (Zhang et al., 2007), derived from the Parental Oka (POka, Accession number: AB097933) strain was propagated in HFFs. To prepare the virus for inoculation, VZV-infected HFFs were trypsinized, then washed and resuspended in TCM, and used immediately for direct injection. Each tissue was injected twice with 30 μL of the cell suspension using a 1 cc syringe fitted with a 27-gauge needle attached to a volumetric stepper (Tridak). […]
The first question we addressed was whether N-MCT was effective against VZV in cultured cells. A standard EC50 evaluation was performed using the VZV-BAC-Luc strain and virus yield was measured by bioluminescence. […]
Cells were treated for 48 hpi (hour post infection) and the medium containing the drug was changed after 24 h. VZV spread was measured by bioluminescence imaging at 48 hpi and expressed as Total Flux (photons/sec/cm^2/steradian). […]

The test system of data set [2] is VZV. Nature of the data set: Skin organ culture assay, drug in medium. The format is cell-based, varicella-zoster virus. The procedure:
Human foreskin fibroblasts (HFFs) (CCD-1137Sk; American Type Culture Collection), used prior to passage 20 were grown in Eagle minimum essential medium with Earle's salts and L-glutamine (HyClone Laboratories), supplemented with 10% heat-inactivated fetal bovine serum (Benchmark FBS; Gemini Bio Products), penicillin-streptomycin (5000 IU/mL), amphotericin B (250 µg/mL), and nonessential amino acids (all Mediatech). VZV-BAC-Luc (Zhang et al., 2007), derived from the Parental Oka (POka, Accession number: AB097933) strain was propagated in HFFs. To prepare the virus for inoculation, VZV-infected HFFs were trypsinized, then washed and resuspended in TCM, and used immediately for direct injection. Each tissue was injected twice with 30 μL of the cell suspension using a 1 cc syringe fitted with a 27-gauge needle attached to a volumetric stepper (Tridak). The needle was lightly dragged across the tissue approximately 5 times to scarify the surface to increase infection. Tissues were incubated at 37° C. for 3 h to allow the virus to adhere, and then placed individually on NetWells that had contact with 1.0 mL of tissue culture medium. The cell-associated VZV inoculum was titered on MeWo cells (Taylor and Moffat, 2005) and was typically 1.5×10^6 pfu/mL, which is approximately 9×10^4 pfu/tissue.
In skin organ culture, higher concentrations of N-MCT were needed to reduce VZV spread; virus yield was reduced ˜100-fold when [N-MCT] was greater than 10 μg/mL.

A short description of data set [3]: Mouse weights and tolerability.
Procedure: CB.17 scid/beige male mice were implanted subcutaneously with human fetal skin (the same type of specimens used for the skin organ culture assay). After 3 weeks engraftment period, the skin implants were inoculated with VZV-BAC-Luc. The mice were divided into 5 groups of 12 mice: vehicle, positive control drug, N-MCT low dose, medium dose, and high dose (see FIGS. 3A, 3B, 4A and 4B). Treatment began approximately 2 hours after the inoculation surgery and was administered by oral gavage. Treatment continued twice daily (8:30 am and 8:30 pm) on Days 1-7. The mice were scanned in the IVIS-200 instrument daily from Day 1-8. The mice were weighed before the start of the study and daily during the treatment phase.
CB.17 scid/beige male mice were implanted subcutaneously with human fetal skin (the same type of specimens used for the skin organ culture assay). After 3 weeks engraftment period, the skin implants were inoculated with VZV-BAC-Luc (5×10^3 pfu/implant). The mice were divided into 5 groups of 12 mice: vehicle, positive control drug cidofovir delayed to Days 4-11, N-MCT 50 mg/kg Days 0-7, Days 4-11, or Days 7-13 (see Table 6 below). Treatment began approximately 2 hours after the inoculation surgery and was administered by oral gavage. Treatment continued twice daily (8:30 am and 8:30 pm) on schedule. […] The mice were scanned in the IVIS-200 instrument daily from Day 1-14. The mice were weighed before the start of the study and daily during the treatment phase. The antiviral effects of N-MCT were determined by assessing the VZV growth kinetics and rates (Log10 Total Flux/day).
The animals used in this experiment were SCID-beige mice purchased from Taconic (age 6-7 weeks).
The subject of data set [4] is VZV. The experiment in a line: Skin organ culture topical Assay 1: dose dependence (carbopol gel). Type of data set: cell-based, varicella-zoster virus. The procedure: (§1) Place 36 mL deionized sterile water into small beaker with stir bar. Slowly waft 900 mg of carbopol (980 NF, Lot # CCONLCC013, Lubrizol Corp) into water, avoiding clumps. Add equal volume N-MCT in 20% hydroxypropyl-β-cyclodextrin (Sigma) at 2× to reach the desired concentration. Add 2 drops NaOH (18% solution) to attain a pH near 5.0. Store at 4° C. The 0.5% cidofovir gel was made in a similar manner except that cidofovir was dissolved in water. The DMSO vehicle was prepared by adding a 2% DMSO solution in water to the carbopol suspension at a 1:1 ratio. Hydroxypropyl-β-cyclodextrin (HPBCD) was prepared by mixing 5.0 g with 20 mL sterile water. Stock solution of N-MCT was prepared by dissolving 90 mg N-MCT in 9 mL 20% HPBCD and sonicating for 1 min.
A skin organ culture model was used to evaluate N-MCT as a topical treatment for VZV. Human skin explants were inoculated with VZV by scarification and treated daily from 1-4 days post infection with N-MCT (0.05, 0.5, or 5%) or cidofovir (0.5%, positive control) in a carbopol gel.
(§2) Human fetal skin was purchased from ABR and delivered by overnight courier on wet ice. The tissue was cleaned, disinfected in betadine and 70% ethanol, then cut into pieces approximately 1-cm^2. Each piece was inoculated with VZV-BAC-Luc strain that expresses firefly luciferase. Approximately 3 hours after inoculation, the pieces of skin were placed in NetWells above tissue culture medium and incubated overnight. The next day (Day 1) each piece of skin was soaked in D-luciferin for 45 min, and then scanned in the IVIS-50 instrument to measure Total Flux, which is a correlate of VZV pfu. The drug treatment began on Day 1 or later by spreading an aqueous gel (carbopol) containing N-MCT at concentrations of 0.05, 0.5, or 5% (see Assay 1 in Table 4 below). One group of skin was treated with cidofovir ([…] in carbopol gel) for a positive control. Each group contained 4-6 pieces of skin. The drug was applied daily until Day 5 (or other intervals), and then the skin pieces were scanned by IVIS to determine virus yield. […] The results were analyzed for statistical significance by ANOVA and Dunnett's post hoc test of multiple comparisons (GraphPad Prism).

Data set [5] concerns VZV. Nature of the data set: Skin organ culture topical Assay 2: delayed treatment. Type of data set: cell-based, varicella-zoster virus. How it is done: as §1, §2
This assay differs from Assay 1 in that the Vehicle was prepared with 10% HPBCD, which is the solvent for the N-MCT. Refer to Assay #2 in Table 4 above. Three groups were treated on Days 1-4 and scanned on Day 5, which is the typical assay protocol. Two groups were treated after a delay of several days, which more closely reflects a clinical scenario of zoster. All treated groups received the same preparation of 0.5% N-MCT in carbopol with 10% HPBCD. VZV yield was reduced in the Vehicle group during the treatment phase, and then rebounded. This was likely due to the effects of HPBCD, which has known antiviral properties. […] In contrast, VZV yield increased until Day 5 in the group that received no treatment until after this scan. The difference between this group and the Vehicle group was notable, since they were expected to be similar.

Where [6] appears, read: 50 mg/kg oral gavage, delayed-treatment study.
The mark [7] stands for this setting: all doses, dose-range study in mice.

The term EC50 denotes the concentration at which the effect is half-maximal. A low value points to greater potency. `Cc1cn([C@]23C[C@H](O)[C@@H](CO)[C@@H]2C3)c(=O)[nH]c1=O` [N-MCT, N-methanocarbathymidine]: the EC50 is 0.06 µg/mL (≈ 0.238 µM) with VZV [1] (Human alphaherpesvirus 3, Fibroblast, human foreskin fibroblasts, VZV-BAC-Luc, bioluminescence at 48 hpi) and 0.06 µg/mL (≈ 0.238 µM) in the data set with VZV [1] (Human alphaherpesvirus 3, cultured cells). In the data set on VZV [2] (FIG. 2), the “VZV growth in skin organ culture” value is “prevents VZV growth”. Besides, in the data set on VZV [2] ([N-MCT] greater than 10 μg/mL, skin organ culture), the virus yield reduction is given as ~100 fold. Moreover, the “concentrations at which N-MCT prevents VZV spread in human skin explants” value in the data set on VZV [2] (human skin explants, drug in medium) is > 10 µg/mL. In addition, the tolerability entry in data set [3] (setting [6]) is “well tolerated; also recorded: well-tolerated”; in data set [3] (setting [7]), “well tolerated”. Besides, the weight loss result in data set [3] (setting [6]) is “minimal weight loss”; in data set [3] (setting [7]), “did not cause excessive weight loss”. Also, the “VZV yield compared to vehicle” value in the data set on VZV [4] (N-MCT 0.05, 0.5, 5% or cidofovir in carbopol gel, daily, p<0.0004) is listed as “significantly reduced”. The “VZV replication in skin explants, topical gel” value in the data set on VZV [4] (N-MCT 0.05-5%, cidofovir 0.5% in carbopol gel) is listed as “prevented VZV replication”. The “reduction of virus yield compared to the vehicle group” value with VZV [4] (all concentrations, topical carbopol gel, p=0.0004) is on record as “approximately 100 fold”. In addition, the “effective topical concentration, as low as” value in the data set with VZV [4] (carbopol gel with 10% hydroxypropyl-β-cyclodextrin, human skin explants) is reported as ≥ 0.05%. Besides, in the data set on VZV [5] (0.5% N-MCT QD 3-6 dpi, by Day 7), the “VZV yield, treatment on Days 3-6” value was “reduced to a similar low level”. In addition, the “VZV yield, treatment begun on Day 5” value in the data set with VZV [5] (0.5% N-MCT QD 5-8 dpi) is given as “decreased sharply”. Besides, in the data set with VZV [5] (0.5% N-MCT in carbopol with 10% HPBCD), the “VZV rebound after treatment on Days 1-4” value is listed as “no rebound was observed”. In addition, in the data set on VZV [5] (0.5% in carbopol QD 1-4 dpi, during and after treatment), the “VZV yield, treatment on Days 1-4” value was “equally reduced”. Besides, the “effectiveness as topical treatment when VZV infection established for 3-5 days” value with VZV [5] (skin organ culture) is reported as “highly effective”.
